The source of these data is US10662228B2 (priority 2014, dated 2020).

For the assay, the system named is potassium ion channel current of the DRG neurons. It counts as cell-based, SD rats. As to conditions: 5 mM.

Take `Nc1ccncc1` [4AP, 4-aminopyridine]: the Current inhibition rate turned out to be 0.338 and the “Current recorded after loading” value was 0.9766 nA.
